system: Plasmodium falciparum; assay: Inhibition against Plasmodium falciparum Dd2 in erythrocytes in semiautomated micro dilution assay; type: functional, organism-based

SMILES | IC50 [nM]
Cc1ccc(CC(=O)Nc2ccc(NC(=O)/C=C/c3ccc(-c4ccc(C(N)=O)cc4)o3)cc2C(=O)c2ccccc2)cc1 | 560
COC(=O)c1ccc(-c2ccc(/C=C/C(=O)Nc3ccc(NC(=O)Cc4ccc(C)cc4)c(C(=O)c4ccccc4)c3)o2)cc1 | 170
CC(=O)c1ccc(-c2ccc(/C=C/C(=O)Nc3ccc(NC(=O)Cc4ccc(C)cc4)c(C(=O)c4ccccc4)c3)o2)cc1 | 67
Cc1ccc(CC(=O)Nc2ccc(NC(=O)/C=C/c3ccc(-c4ccc(C(F)(F)F)cc4)o3)cc2C(=O)c2ccccc2)cc1 | 77
CCS(=O)(=O)c1ccc(-c2ccc(/C=C/C(=O)Nc3ccc(NC(=O)Cc4ccc(C)cc4)c(C(=O)c4ccccc4)c3)o2)cc1 | 60
Cc1ccc(CC(=O)Nc2ccc(NC(=O)/C=C/c3ccc(-c4ccc(C#N)cc4)o3)cc2C(=O)c2ccccc2)cc1 | 220
CC(=O)Nc1ccc(-c2ccc(/C=C/C(=O)Nc3ccc(NC(=O)Cc4ccc(C)cc4)c(C(=O)c4ccccc4)c3)o2)cc1 | 560
Cc1ccc(CC(=O)Nc2ccc(NC(=O)/C=C/c3ccc(-c4ccc(S(C)(=O)=O)cc4)o3)cc2C(=O)c2ccccc2)cc1 | 37

Continued by falling IC50, values first:

IC50 [nM] | SMILES
280 | Cc1ccc(CC(=O)Nc2ccc(NC(=O)/C=C/c3ccc(-c4ccc(NC=O)cc4)o3)cc2C(=O)c2ccccc2)cc1
260 | Cc1ccc(CC(=O)Nc2ccc(NC(=O)/C=C/c3ccc(-c4ccc(N)cc4)o3)cc2C(=O)c2ccccc2)cc1
200 | Cc1ccc(CC(=O)Nc2ccc(NC(=O)/C=C/c3ccc(-c4ccc(S(N)(=O)=O)cc4)o3)cc2C(=O)c2ccccc2)cc1

Reference: ChEMBL document CHEMBL1136081, “Structure-activity relationships of novel anti-malarial agents. Part 7: N-(3-benzoyl-4-tolylacetylaminophenyl)-3-(5-aryl-2-furyl)acrylic acid amides with polar moieties” (Bioorg Med Chem Lett, 2003)
